Results on 9 compounds are retold here after patent US20110207705A1, “OVIEDOMYCIN DERIVATIVES, METHOD FOR OBTAINING SAME AND USE THEREOF” (UNIVERSIDAD DE OVIEDO, priority 2008, published 2011).

Read-outs that look alike come from different tables or passages of the source.

In one data set the test system is tumour cell lines. Nature of the data set: Anti-tumour activity against the series of tumour cell lines (SRB test). As to conditions: tumour cell lines of Table 5, in words. Type of data set: cell-based. As to the method: (§1) The OVM derivatives were tested against a series of cell lines from tumours. Cell growth and viability were quantitatively determined with a colorimetric type test, using the reaction with sulforhodamine B (SRB), according to the technique described by Faircloth et al. (Journal of Tissue and Culture Methods 1988, 11, 201-205).
(§2) 96-well microtiter plates are inoculated with cells (5×10^3 cells per well) in aliquots of 195 μl of medium, incubating them for 18 h, in medium without added compound, to allow the cells to adhere to the surface. Next, the compounds to be tested are added, in samples of 5 μl, in a concentration range of 10 to 10^−8 μg/ml, dissolved in DMSO/EtOH (0.2% in PS buffer). After 48 h exposure, the anti-tumour effect is measured using the SRB technique: the cells are fixed by adding 50 μl of cold trichloroacetic acid (50%) (w/v) and it is incubated for 60 min. at 4° C. The plates are washed with deionized water and dried. 100 μl of SRB solution (0.4% w/v in 1% acetic acid) are added to each well, and it is incubated for 10 min. at ambient temperature. The unbound SRB is eliminated, washing with 1% acetic acid. The plates are air dried and the bound colorant is dissolved with Tris buffer. The optical densities are read in an automatic dish spectrophotometer reader at a wavelength of 490 nm.
A general note: The SRB assay estimates cell density from bound dye.

The next data set concerns A549 (lung). Description: Anti-tumour activity, sulforhodamine B (SRB) colorimetric cell growth test. The conditions noted are these: 48 h exposure, read-out: GI50 (concentration at which the compound tested inhibits 50% of the cell growth in comparison with untreated cells). Type of data set: cell-based. Here is the method:
as §1, §2

In the next data set the test system is MDA-MB-231 (breast). Described as above. Type of data set: cell-based. The conditions noted are these: 48 h exposure, read-out: GI50 (concentration at which the compound tested inhibits 50% of the cell growth in comparison with untreated cells). As to the method: as §1, §2
A further data set relates to HT29 (colon). The description is as above. Type of data set: cell-based. The conditions noted are these: read-out: GI50 (concentration at which the compound tested inhibits 50% of the cell growth in comparison with untreated cells). Here is the method:
as §1, §2

For data set [1] the following is noted: spontaneous dehydration and oxidation; J. Am. Chem. Soc. 1999, 121, 1786-1794; cited from earlier work.

As for 4a,12b-dehydro-UWM6 [formula IX], the “GI50 values (in words)” value in the data set with tumour cell lines was “submicromolar range”. Further, in the data set with tumour cell lines, the “anti-tumour activity compared with OVM” value is reported as “clearly greater activities than that of the OVM”. In addition, the GI50 stood at 0.77 µM in the data set with A549 (lung), 0.65 µM in the data set with MDA-MB-231 (breast) and 1.85 µM with HT29 (colon) (48 h exposure).

As for 5-hydroxy-rabelomycin [formula XII], the figures for the GI50 in the data set on A549 (lung), with MDA-MB-231 (breast) and in the data set with HT29 (colon) (48 h exposure) were 7.62 µM, 13.3 µM and 12.4 µM, respectively.

On to `Cc1c(O)c2cc(O)c3c(=O)c4c(O)cccc4c(=O)c3c2c(=O)c1=O` [OVM, Oviedomycin], for which the GI50 in the data set on A549 (lung) is 8.7 µM; in the data set with MDA-MB-231 (breast) it was 5.6 µM; in the data set with HT29 (colon) (48 h exposure), 6.9 µM.

As to `C[C@]1(O)CC(=O)c2c(cc(O)c3c2C(=O)c2cccc(O)c2C3=O)C1` [formula VI, rabelomycin], the GI50 worked out at 5.32 µM with A549 (lung) (Homo sapiens); 6.8 µM in the data set on MDA-MB-231 (breast) (Homo sapiens); 10.9 µM in the data set on HT29 (colon) (Homo sapiens, HT-29, 48 h exposure).

In the case of `Cc1cc(O)c2c3c(c(O)c(O)c2c1)C(=O)c1c(O)cccc1C3=O` [formula VIII, 5-hydroxy-dehydro-rabelomycin], the GI50 was found to be 6.24 µM in the data set with A549 (lung), 2.56 µM with MDA-MB-231 (breast) and 8.03 µM in the data set on HT29 (colon) (48 h exposure).

Regarding `CC1=CC(=O)[C@@H]2c3cc4cccc(O)c4c(O)c3C(=O)C[C@]2(O)C1` [formula X, prejadomycin], the “GI50 values (in words)” value with tumour cell lines is “submicromolar range”. Further, the “anti-tumour activity compared with OVM” value in the data set with tumour cell lines is recorded as “clearly greater activities than that of the OVM”. Further, the GI50 with A549 (lung) stood at 0.29 µM; in the data set on MDA-MB-231 (breast) it was 0.24 µM; in the data set with HT29 (colon) (48 h exposure), 1.29 µM.

`C[C@]1(O)CC(=O)C2c3cc4cccc(O)c4c(O)c3C(=O)C[C@]2(O)C1` (stereo partly shown) [formula XI, UWM6]: the stability result in data set [1] was “unstable and spontaneously becomes rabelomycin”. Also, the GI50 is greater than 100 µM with A549 (lung), 24.8 µM with MDA-MB-231 (breast) and greater than 100 µM in the data set on HT29 (colon) (48 h exposure).

On to `C[C@]1(O)CC(=O)c2c(cc(O)c3c2C(=O)c2ccc(O)c(O)c2C3=O)C1` [formula XIII, 9-hydroxy-rabelomycin], for which the figures for the GI50 in the data set with A549 (lung), in the data set on MDA-MB-231 (breast) and with HT29 (colon) (48 h exposure) were 3.1 µM, 7.06 µM and 14.1 µM, respectively.

Regarding “prejadomycin 2-carboxylate [formula VII]”, the “GI50 values (in words)” value in the data set with tumour cell lines is on record as “submicromolar range”. Also, in the data set with tumour cell lines, the “anti-tumour activity compared with OVM” value is “clearly greater activities than that of the OVM”. In addition, the GI50 in the data set on A549 (lung) amounted to 0.6 µM; in the data set on MDA-MB-231 (breast), 0.38 µM; in the data set on HT29 (colon) (48 h exposure), 1.17 µM.
